In BindingDB's records for patent US10961200 (Department Of Health And Human Services, 2021):

Molecular target: L-lactate dehydrogenase A chain (Homo sapiens, UniProt P00338)
Experiment: Biochemical Assay
Excerpt: Test compounds were placed in a Greiner Bio-One (Monroe, N.C.) 1536-well black solid bottom assay plate. 200 millimolar (mM) Tris HCl, pH 7.4, 100 micromolar (M) EDTA and 0.01% TWEEN-20 , final concentration, was used as the assay buffer. The LDHA reagent was 2 nanomolar (nM) Human LDHA (Meridian Life Science, Inc., Memphis, Tenn.), final concentration, in assay buffer.

IC50 [nM]	SMILES
< 100	NS(=O)(=O)c1ccc(Cc2cn(-c3nc(C(=O)O)cs3)nc2-c2ccc(F)c(-c3ccccc3)c2)cc1 [US10961200, Compound 515]
< 100	NS(=O)(=O)c1ccc(Cc2c(-c3cccc(Nc4ccccc4)c3)nn(-c3nc(C(=O)O)cs3)c2CC2CC2)cc1 [US10961200, Compound 485]
< 100	CC(C)Oc1cccc(-c2nn(-c3nc(C(=O)O)cs3)c(CC3CC3)c2Cc2ccc(S(N)(=O)=O)cc2)c1 [US10961200, Compound 504]
